Data: ChEMBL document CHEMBL3351424, “Reversible ketomethylene-based inhibitors of human neutrophil proteinase 3” (J Med Chem, 2014)
The source made the active and inactive calls. The rule behind the calls is not given here. Starred links: 1 amine or outer side, 2 acyl side, 3 side chain; linkers in the order of their positions; H or OH if unused. Non-standard residues stand in square brackets, D forms with d. Residues, ends and D or L forms follow the SMILES beside them. *: point of attachment. EDDnp = O=[N+]([O-])c1ccc(NCCN*)c([N+](=O)[O-])c1; X1 = CCC[C@H](N[*:1])C(=O)C[C@@H](C)C(=O)[*:2]; 2Abz = Nc1ccccc1C(=O)O

Columns and labels:
[1] = molecular target: T1, Neutrophil elastase (Homo sapiens) (UniProt P08246); assay: Inhibition of human NE using MeOSuc-AAPV-AMC as substrate after 30 mins by fluorescence assay
T1 sequence (whole entry): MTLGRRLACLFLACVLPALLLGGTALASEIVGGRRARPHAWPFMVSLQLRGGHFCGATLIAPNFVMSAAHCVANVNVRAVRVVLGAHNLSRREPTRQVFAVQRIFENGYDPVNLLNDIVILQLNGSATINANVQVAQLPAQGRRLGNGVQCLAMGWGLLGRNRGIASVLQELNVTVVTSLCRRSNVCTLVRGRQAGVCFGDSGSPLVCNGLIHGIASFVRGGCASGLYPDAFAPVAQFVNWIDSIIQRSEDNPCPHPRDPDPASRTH

[2] = molecular target: T2, Myeloblastin (Homo sapiens) (UniProt P24158); assay: Inhibition of human PR3 using N-EY-FRET as substrate at 6 uM after 20 mins by fluorescence assay
T2 sequence (whole entry): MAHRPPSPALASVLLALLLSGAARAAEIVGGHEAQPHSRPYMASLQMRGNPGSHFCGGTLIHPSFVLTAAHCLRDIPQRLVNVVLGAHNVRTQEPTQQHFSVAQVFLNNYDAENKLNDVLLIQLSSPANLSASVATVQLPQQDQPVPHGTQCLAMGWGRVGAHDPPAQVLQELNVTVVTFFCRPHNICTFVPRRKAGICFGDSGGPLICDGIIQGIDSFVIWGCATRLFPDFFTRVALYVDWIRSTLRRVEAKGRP

[3] = molecular target: T1, Neutrophil elastase (Homo sapiens); assay: Inhibition of human NE using MeOSuc-AAPV-AMC as substrate at 6 uM after 30 mins by fluorescence assay
[4] = molecular target: T3, Myeloblastin (Homo sapiens, UniProt P24158); assay: Inhibition of human PR3 using D-DY-FRET as substrate after 30 mins by HPLC analysis
T3 sequence (P24158 whole entry): T2 sequence (whole entry)

With CCC[C@H](NC(=O)[C@H](CO)NC(=O)[C@H](C)NC(=O)[C@@H](NC(=O)c1ccccc1N)C(C)C)C(=O)C[C@@H](C)C(=O)N[C@@H](CCC(=O)O)C(=O)N[C@@H](CCCNC(=N)N)C(=O)N[C@@H](CCC(N)=O)C(=O)NCCNc1ccc([N+](=O)[O-])cc1[N+](=O)[O-] (H-[2Abz]VAS[X1]ERQ-EDDnp) the inhibition [1] was “inactive”.
O=S(=O)(F)Cc1ccccc1 [PHENYLMETHYLSULFONYLFLUORIDE] was tested, and the inhibition [2] was 20%, the inhibition [3] was 20% and the IC50 [4] was 19.2 µM.
